Test [1] concerns the target MMP-12 (Homo sapiens, UniProt P39900). As to the kind of experiment: MMP-12 of Table 3. It is filed as biochemical. The conditions noted are these: unit inferred.
For test [2], the target named is T1, purified recombinant human Aggrecanase-1 (rAgg1) (Homo sapiens, UniProt O75173).
T1 sequence (O75173 213-837): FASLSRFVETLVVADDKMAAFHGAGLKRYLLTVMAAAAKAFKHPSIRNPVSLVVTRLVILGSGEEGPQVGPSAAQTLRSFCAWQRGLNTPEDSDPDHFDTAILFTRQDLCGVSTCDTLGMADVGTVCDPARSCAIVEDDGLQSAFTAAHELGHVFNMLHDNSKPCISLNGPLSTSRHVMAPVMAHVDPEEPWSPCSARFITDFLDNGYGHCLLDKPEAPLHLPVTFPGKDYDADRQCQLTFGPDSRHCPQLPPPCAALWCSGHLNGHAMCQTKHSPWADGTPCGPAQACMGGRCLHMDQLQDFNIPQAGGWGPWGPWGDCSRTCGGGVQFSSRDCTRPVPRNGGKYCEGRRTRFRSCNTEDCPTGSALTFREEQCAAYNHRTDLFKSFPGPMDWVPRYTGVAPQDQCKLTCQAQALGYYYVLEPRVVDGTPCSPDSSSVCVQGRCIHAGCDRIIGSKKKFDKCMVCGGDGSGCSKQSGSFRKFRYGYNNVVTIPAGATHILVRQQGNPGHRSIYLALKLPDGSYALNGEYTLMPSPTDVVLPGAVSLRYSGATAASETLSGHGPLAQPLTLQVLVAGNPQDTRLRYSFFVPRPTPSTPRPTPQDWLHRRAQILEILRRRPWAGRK
As to the kind of experiment: In vitro fluorescence screen for Aggrecanase-1 inhibitors. Type of test: biochemical. The following applies: for IC50: read-out: Agg1 IC50.

Test [3] addresses T2, purified recombinant human Aggrecanase-2 (Ag2t-Phe628-Strep) (Homo sapiens, UniProt Q9UNA0).
T2 construct: the form used is denoted as Ag2t-Phe628-Strep (MW=41,737)
T2 sequence (Q9UNA0 262-628): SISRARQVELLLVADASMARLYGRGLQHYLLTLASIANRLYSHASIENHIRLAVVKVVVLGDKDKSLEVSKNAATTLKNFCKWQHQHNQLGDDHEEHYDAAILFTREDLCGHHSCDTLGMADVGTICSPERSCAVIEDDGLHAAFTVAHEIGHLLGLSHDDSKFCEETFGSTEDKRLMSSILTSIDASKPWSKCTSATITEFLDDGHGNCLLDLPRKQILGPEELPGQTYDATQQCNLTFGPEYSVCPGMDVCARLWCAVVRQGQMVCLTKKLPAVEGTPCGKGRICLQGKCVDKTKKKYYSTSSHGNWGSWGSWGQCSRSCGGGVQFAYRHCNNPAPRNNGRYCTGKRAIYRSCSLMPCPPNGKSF
As to the kind of experiment: In vitro fluorescence screen for Aggrecanase-2 inhibitors. It is filed as biochemical. The following applies: for IC50: read-out: Agg 2 IC50; for Ki: read-out: Ki Agg2.

In test [4] the target is MMP-8 (Homo sapiens, UniProt P22894). The test can be described thus: MMP-8 of Table 3. It is filed as biochemical. The conditions noted are these: unit inferred.
Test [5] has as its target T3, recombinant human MMP-2 (Homo sapiens, UniProt P08253).
T3 sequence (P08253 110-660): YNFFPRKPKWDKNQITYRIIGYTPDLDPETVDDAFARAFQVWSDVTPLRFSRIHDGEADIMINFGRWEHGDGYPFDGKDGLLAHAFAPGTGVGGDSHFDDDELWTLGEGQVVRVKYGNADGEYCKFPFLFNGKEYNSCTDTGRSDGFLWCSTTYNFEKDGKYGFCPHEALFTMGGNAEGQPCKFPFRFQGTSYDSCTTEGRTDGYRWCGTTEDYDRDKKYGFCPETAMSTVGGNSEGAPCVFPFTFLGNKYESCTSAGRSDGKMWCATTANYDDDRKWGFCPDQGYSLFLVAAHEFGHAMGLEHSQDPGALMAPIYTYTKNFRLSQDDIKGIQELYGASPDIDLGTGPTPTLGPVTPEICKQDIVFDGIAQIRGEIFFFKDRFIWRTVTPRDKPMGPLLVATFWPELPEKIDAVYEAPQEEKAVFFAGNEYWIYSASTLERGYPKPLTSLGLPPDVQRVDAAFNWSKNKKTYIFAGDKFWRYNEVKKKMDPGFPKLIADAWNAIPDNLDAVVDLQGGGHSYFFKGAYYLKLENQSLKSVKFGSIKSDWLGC
The test can be described thus: In vitro fluorescence assay of MMP-2 activity.

Test [6] concerns bovine articular cartilage treated with Interleukin 1 alpha (IL-1α). The test can be described thus: Bovine articular cartilage explant cultures: inhibition of degradation of proteoglycan. Type of test: cell-based. The following applies: inhibitory effect expressed as percentage, concentration not printed. The procedure, abridged:
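Bovine metacarpal cartilage discs (6 mm), equilibrated in serum-free DMEM-based medium, were treated with 5 ng/ml IL-1 plus compound (working solutions 0.1-10 μg/ml), with medium collected and replaced on days 1, 2 and 3. Released proteoglycan was measured by DMMB absorbance at 520 nm against chondroitin sulphate standards, expressed as μg per mg cartilage, and inhibition given as percentage.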

For test [7], the target named is T4, recombinant human catalytic domain of MMP-14 (Homo sapiens, UniProt P50281).
T4 construct: 177 amino acids corresponding to Tyr89-Gly265 of mature human enzyme; purchased Chemicon International, Inc. CC1041
As to the kind of experiment: In vitro fluorescence assay of MMP-14 activity. It is filed as biochemical. The conditions noted are these: Table 1; unit inferred.

For test [8], the target named is T5, MMP-1 (Homo sapiens, UniProt P03956).
T5 sequence (P03956 100-469): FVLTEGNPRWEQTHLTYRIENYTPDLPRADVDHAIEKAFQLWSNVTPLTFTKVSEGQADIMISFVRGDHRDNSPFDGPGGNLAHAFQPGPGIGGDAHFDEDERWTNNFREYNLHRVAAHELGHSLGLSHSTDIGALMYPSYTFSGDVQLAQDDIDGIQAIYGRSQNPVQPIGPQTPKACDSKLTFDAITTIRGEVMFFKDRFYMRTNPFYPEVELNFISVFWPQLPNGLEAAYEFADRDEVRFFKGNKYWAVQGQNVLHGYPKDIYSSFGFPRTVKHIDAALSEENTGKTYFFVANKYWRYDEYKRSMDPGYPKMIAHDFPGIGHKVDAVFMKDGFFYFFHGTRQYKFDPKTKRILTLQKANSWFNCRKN
The test can be described thus: MMP-1 of Table 1. It is filed as biochemical. The following applies: unit inferred.

The target of test [9] is T6, recombinant human catalytic domain of MMP-13 (Homo sapiens, UniProt P45452).
T6 construct: catalytic domain of MMP-13 (165 amino acids, residues 104-268, 19 kDa)
As to the kind of experiment: In vitro fluorescence assay of MMP-13 activity. It is filed as biochemical. The conditions noted are these: Table 1; unit inferred.

Where [10] appears, read: Table 1, first of two columns headed bovine.
The mark [11] stands for this setting: Table 1, second of two columns headed bovine.

Molecules are shown by their SMILES. Where two headings read alike, the source gives them in different places. Some results are limits rather than exact numbers.

This passage reports IC50, Ki and bovine results from patent US7998965B2, “Glutamate aggrecanase inhibitors” (Wyeth LLC, priority 2005, dated 2011).

Chain of MMP-12 (P39900 106-470): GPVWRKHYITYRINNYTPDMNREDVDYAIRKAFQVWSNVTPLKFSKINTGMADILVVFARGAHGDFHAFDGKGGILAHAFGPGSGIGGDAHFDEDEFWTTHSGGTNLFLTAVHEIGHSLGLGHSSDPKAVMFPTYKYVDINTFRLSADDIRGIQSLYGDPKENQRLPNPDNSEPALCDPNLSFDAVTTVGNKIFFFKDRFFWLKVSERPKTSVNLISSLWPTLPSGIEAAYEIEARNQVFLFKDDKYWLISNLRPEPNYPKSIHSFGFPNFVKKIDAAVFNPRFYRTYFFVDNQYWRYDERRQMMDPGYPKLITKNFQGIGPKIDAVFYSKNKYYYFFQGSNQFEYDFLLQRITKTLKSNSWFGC
Chain of MMP-8 (P22894 101-467, species assumed): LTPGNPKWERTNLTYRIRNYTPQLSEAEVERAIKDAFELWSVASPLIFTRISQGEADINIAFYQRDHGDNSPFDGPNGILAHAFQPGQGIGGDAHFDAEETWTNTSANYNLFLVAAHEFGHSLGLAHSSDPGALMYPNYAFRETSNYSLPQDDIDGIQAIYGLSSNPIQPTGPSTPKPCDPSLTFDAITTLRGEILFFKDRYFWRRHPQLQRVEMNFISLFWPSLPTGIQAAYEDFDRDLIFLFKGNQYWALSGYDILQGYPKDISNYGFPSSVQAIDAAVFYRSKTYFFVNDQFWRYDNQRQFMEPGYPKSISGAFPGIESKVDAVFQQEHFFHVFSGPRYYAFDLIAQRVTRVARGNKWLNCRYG

On to `CC(C)(Cc1ccc(F)cc1)NC(=O)[C@H](CCC(=O)O)NC(=O)c1ccc(-c2ccc(Cl)cc2)s1` [N^2-{[5-(4-chlorophenyl)-2-thienyl]carbonyl}-N-[2-(4-fluorophenyl)-1,1-dimethylethyl]-L-α-glutamine], for which the concentration for half-maximal inhibition (IC50) (in general, the concentration needed to halve the response being measured) is more than 10000 nM in test [1]; less than 30 nM in test [2] (Table 3); more than 100 nM in test [3] (Table 3); 3400 nM in test [4]; 8000 nM in test [5]. Moreover, the Ki – broadly, the equilibrium dissociation constant of an inhibitor or competing ligand from its target – in test [2] (Table 3, read-out: Ki Agg1) came to 11.7 nM; in [3] (Table 3), 405 nM.

Regarding `CC(C)(Cc1ccccc1)NC(=O)[C@H](CCC(=O)O)NC(=O)c1ccc(-c2cccc(F)c2)cc1` [N-(1,1-dimethyl-2-phenylethyl)-N^2-[(3′-fluorobiphenyl-4-yl)carbonyl]-L-α-glutamine], the IC50 in test [1] is 1070 nM; in test [2] (Table 3), less than 30 nM; in test [3] (Table 3) it was 80 nM; in [4] it was 2500 nM; in test [5], 6400 nM. The inhibition constant (Ki) stood at 23.2 nM in test [2] (Table 3, read-out: Ki Agg1) and 180 nM in test [3] (Table 3).

Regarding `CC(C)(Cc1ccc(F)cc1)NC(=O)[C@H](CCC(=O)O)NC(=O)c1ccc(-c2ccc(Cl)s2)nc1` [N^2-{[6-(5-chloro-2-thienyl)pyridin-3-yl]carbonyl}-N-[2-(4-fluorophenyl)-1,1-dimethylethyl]-L-α-glutamine], the IC50 is more than 10000 nM in [1]; less than 30 nM in test [2] (Table 3); more than 300 nM in test [3] (Table 3); more than 5000 nM in test [4]; 1300 nM in test [5]. Also, the Ki stood at 42 nM in test [2] (Table 3, read-out: Ki Agg1) and 723 nM in test [3] (Table 3).

On to `CC(C)(Cc1ccccc1)NC(=O)[C@H](CCC(=O)O)NC(=O)c1ccc(-c2ccc(F)cc2)s1` [N-(1,1-dimethyl-2-phenylethyl)-N^2-{[5-(4-fluorophenyl)-2-thienyl]carbonyl}-L-α-glutamine], for which the IC50 in [1] is 2890 nM; in test [2] (Table 3), less than 30 nM; in test [3] (Table 3) it was 30 to 300 nM; in test [4] it was 2550 nM; in test [5] it was 7240 nM. Moreover, the inhibition constant (Ki) in [2] (Table 3, read-out: Ki Agg1) was determined as 11.5 nM; in test [3] (Table 3), 126 nM.

Take `CC(C)(Cc1ccc(F)cc1)NC(=O)[C@H](CCC(=O)O)NC(=O)c1ccc(-c2ccsc2)cc1` [Example 8UUUUUUU, N-[2-(4-fluorophenyl)-1,1-dimethylethyl]-N^2-[4-(3-thienyl)benzoyl]-L-α-glutamine]: the IC50 in test [1] is 410 nM; in test [2] (Table 3) it was less than 30 nM; in test [3] (Table 3), 60 nM; in [4], 2030 nM; in test [5], 5180 nM. In addition, the Ki is less than 3 nM in test [2] (Table 3, read-out: Ki Agg1) and 60 nM in test [3] (Table 3).

For `CC(C)(Cc1ccc(F)cc1)NC(=O)[C@H](CCC(=O)O)NC(=O)c1ccc(-c2ccc(Br)s2)cc1` [Example 8WWWWWW, N^2-[4-(5-bromo-2-thienyl)benzoyl]-N-[2-(4-fluorophenyl)-1,1-dimethylethyl]-L-α-glutamine], the IC50 is 5800 nM in test [1]; less than 3 nM in test [2] (Table 3); 50 nM in test [3] (Table 3); 1000 nM in test [4]; 2600 nM in [5]. The Ki in [2] (Table 3, read-out: Ki Agg1) is 7.1 nM; in test [3] (Table 3), 72 nM.

`CC(C)(Cc1ccc(Cl)s1)NC(=O)[C@H](CCC(=O)O)NC(=O)c1ccc(-c2cccc(F)c2)cc1` [Example 8XXXXXX, N-[2-(5-chloro-2-thienyl)-1,1-dimethylethyl]-N^2-[(3′-fluorobiphenyl-4-yl)carbonyl]-L-α-glutamine]: the IC50 in [1] was 1600 nM; in [2] (Table 3), less than 30 nM; in [3] (Table 3) it was 20 nM; in test [4], 4100 nM; in test [5], 7500 nM. In addition, the inhibition constant Ki was less than 3 nM in [2] (Table 3, read-out: Ki Agg1) and 60 nM in test [3] (Table 3).

Take `CC(C)(Cc1ccc(Cl)cc1)NC(=O)[C@H](CCC(=O)O)NC(=O)c1ccc(-c2cccc(Cl)c2)cc1` [N^2-[(3′-chlorobiphenyl-4-yl)carbonyl]-N-[2-(4-chlorophenyl)-1,1-dimethylethyl]-L-α-glutamine]: the IC50 in test [1] was 3710 nM; in test [2] (Table 3) it was less than 30 nM; in test [3] (Table 3), 250 nM; in [4], 13200 nM; in test [5], 25500 nM. For the same compound, the Ki in test [2] (Table 3, read-out: Ki Agg1) amounted to 39.6 nM; in test [3] (Table 3), 349 nM.

For the compound `CC(C)(Cc1ccc(F)cc1)NC(=O)[C@H](CCC(=O)O)NC(=O)c1ccc(-c2ccc(F)c(F)c2)cc1` [Example 8YYYYYY, N^2-[(3′,4′-difluorobiphenyl-4-yl)carbonyl]-N-[2-(4-fluorophenyl)-1,1-dimethylethyl]-L-α-glutamine], the IC50 is 365 nM in test [1]; less than 30 nM in test [2] (Table 3); 30 nM in test [3] (Table 3); 737 nM in [4]; 4700 nM in test [5]. In addition, the Ki in test [2] (Table 3, read-out: Ki Agg1) came out at 13.5 nM; in test [3] (Table 3) it was 160 nM.

`CCOc1cccc(-c2ccc(C(=O)N[C@@H](CCC(=O)O)C(=O)NCc3ccccc3)cc2)c1` [Example 13D, N^1-benzyl-N^2-[(3′-ethoxy-1,1′-biphenyl-4-yl)carbonyl]-L-α-glutamine]: the bovine in [6] (setting [10]) was determined as 51%; in test [6] (setting [11]) it was 25%. Moreover, the IC50 in test [7] is more than 100000 nM; in test [8], more than 100000 nM; in [2] (Table 1) it was 750 nM; in [3] (Table 1) it was approximately 26000 nM; in test [5] it was more than 200000 nM; in test [9] it was more than 200000 nM.

In the case of `CCCCCCCNC(=O)[C@H](CCC(=O)O)NC(=O)c1ccc(-c2ccccc2)cc1` [Example 8JJJ, N^2-(1,1′-biphenyl-4-ylcarbonyl)-N^1-heptyl-L-α-glutamine], the bovine turned out to be 74% in [6] (setting [10]) and 26% in [6] (setting [11]). In addition, the IC50 is more than 200000 nM in [7]; more than 200000 nM in [8]; 54 nM in [2] (Table 1); 300 nM in test [3] (Table 1); more than 20000 nM in test [5]; 30000 nM in [9]. In addition, in test [2] (Table 1, enzyme not given, column follows Agg1 IC50, read-out: Ki), the Ki was found to be 54 nM.
